Experimental data taken from patent publication US6541506B1, “Antifungal enediynes” (Phytera Incorporated, priority 1999, dated 2003).
In brackets after ≈: the same amount, converted by molar mass.

Tests used:
[1] = test system: C. albicans DSY1024; assay: Candida growth inhibition (XTT), C. albicans DSY1024; format: cell-based; conditions: C. albicans DSY1024 (Table 4)
Description: (§1) There are numerous assays that can be used to measure the inhibition of growth of a fungus such as Candida. In one example, cultures of Candida, e.g., C. albicans strains DSY1024 and SC5314, C. krusei ATCC 6258, and C. glabrata ATCC 90030, are subcultured from cryopreserved stocks onto Sabouraud's dextrose agar plates. Blastoconidia are suspended into RPMI-MOPS medium and inoculated (500 cfu/well) into 96-well plates containing test compounds in a final volume of 100 μL/well. After 22 hours at 35° C., 25 μL of XTT (2,3-bis(2-methoxy-4-nitro-5-sulfophenyl)-5-(phenylamino)carbonyl]-2H-tetrazolium hydroxide), (100 μg/mL) with PMS (phenazine methyl sulfate, 5 μM) are added to each well, followed by 2 hours of shaking. Growth is assessed spectrophotometrically by measuring the appearance of soluble formazan stain at 450 nm using an Emax microplate reader. Validity of the assay is confirmed by determination of the C. albicans minimum inhibitory concentration (MIC) for known antifungal agents such as amphotericin B, 5-flucytosine, fluconazole, nikkomycin Z, and polyoxin D.
LP416E8 (AC-05081-T4-3) was an organic extract of a manipulated plant cell culture from A. corsicum.

[2] = test system: C. albicans SC5314; assay: Candida growth inhibition (XTT), C. albicans SC5314; format: cell-based; conditions: for IC50 / MIC: C. albicans SC5314 (Table 4)
Description: as §1

[3] = test system: Candida; assay: Anti-Candida activity by backbone length; format: cell-based; conditions: X=7
Excerpt: The variable X denotes the length of a saturated carbon backbone. The antifungal activity of the claimed compounds changes in part based on the length of this backbone. […] Preferably, X is an integer between 5 and 7, inclusive, although longer carbon chains (X=8-10) may preserve or increase antifungal activity.

[4] = test system: M. canis; assay: Dermatophyte growth inhibition (microdilution, NCCLS M27A), M. canis; format: cell-based, Microsporum canis
Description: (§2) The compounds of the invention are also effective against dermatophytes. Testing was performed using a microdilution method based on the NCCLS M27A antifungal protocol. Compounds to be tested were prepared in DMSO and diluted to the appropriate concentration in RPMI 1640 medium (the dermatophyte growth medium). An inoculum of each test organism was prepared from oatmeal agar plates to contain 0.5-2.5×10^3 conidia/mL. One hundred microliters of the inoculum was added to each well of a 96-well microtiter plate containing 4 μL of a test compound and 96 μL of RPMI 1640. Terbinafine (sold under the brand name Lamisil®) was used as a positive control.

[5] = test system: T. rubrum; assay: Dermatophyte growth inhibition (microdilution, NCCLS M27A), T. rubrum; format: cell-based, Trichophyton rubrum
Description: as §2

[6] = test system: T. tonsurans; assay: Dermatophyte growth inhibition (microdilution, NCCLS M27A), T. tonsurans; format: cell-based
Description: as §2

[7] = test system: T. mentagrophytes; assay: Dermatophyte growth inhibition (microdilution, NCCLS M27A), T. mentagrophytes; format: cell-based
Description: as §2

[8] = test system: C. albicans strain #64 (sensitive to fluconazole); design: species or system mice; conditions: mouse, in vivo
Description: Immunocompetent mice (ICR, Sprague-Dawley, Indianapolis, Ind.) are infected with a pathogenic strain (e.g., strain #64) of C. albicans that is sensitive to fluconazole. After 24 hours, dissemination of infection has been shown by organ colony counts (kidney, spleen, and liver) greater than 10^5 colony forming units (CFU). Treatment is begun 24 hours after infection with dosage once a day for 10 days. Untreated control mice usually die after about 16 days. After 30 days the percent survival in the group treated with fluconazole (40 mg per kg body weight, twice a day) is about 30%. In addition to measuring animal viability, the organ fungal load (in CFU) can measured.

[9] = test system: C. albicans UTR-14 (fluconazole-resistant clinical isolate); assay: Fluconazole-resistant candidiasis in mice; format: in vivo; conditions: fluconazole-resistant C. albicans UTR-14, 40 mg per kg body weight p.o. twice daily
Description: In a similar experiment using a fluconazole-resistant clinical isolate (e.g., C. albicans UTR-14), the percent survival after 20 days of the group treated with fluconazole (40 mg per kg body weight p.o. (twice daily)) and in the untreated group is each usually 0%.

For `C/C=C\C#CC#C/C=C/C(O)CCCCCCCC(=O)O` (stereo not drawn) [Compound 6], the IC50 [1] was 11.3 µg/mL (≈ 39.2 µM), the MIC [1] was 12.5 µg/mL (≈ 43.3 µM) and the “inhibition of growth of strain SC5314” value [2] was “able to inhibit growth”. The IC50 [2] was 8.5 µg/mL (≈ 29.5 µM) and the MIC [2] was 12.5 µg/mL (≈ 43.3 µM).

In the case of `COC(=O)CCCCCCC/C=C\C#CC#Cc1ccco1` [Compound 7], the “anti-Candida activity (ranking by backbone length X)” value [3] is reported as “greatest anti-Candida activity”, the MIC ([4]; M. canis, four days at 35° C., visual inspection) is reported as 0.125 µg/mL (≈ 0.419 µM) and the MIC ([5]; T. rubrum, four days at 35° C., visual inspection) is reported as 0.125 µg/mL (≈ 0.419 µM). For the same compound, the IC50 [1] was 0.19 µg/mL (≈ 0.637 µM), the MIC [1] was 0.25 µg/mL (≈ 0.838 µM) and the “inhibition of growth of strain SC5314” value [2] was “able to inhibit growth”. The IC50 [2] was 0.221 µg/mL (≈ 0.741 µM), the MIC [2] was 0.25 µg/mL (≈ 0.838 µM) and the MIC ([6]; T. tonsurans, four days at 35° C., visual inspection) was 0.125 µg/mL (≈ 0.419 µM). For the same compound, the MIC ([7]; T. mentagrophytes, four days at 35° C., visual inspection) was 0.125 µg/mL (≈ 0.419 µM).

For `CN(C/C=C/C#CC(C)(C)C)Cc1cccc2ccccc12` [Terbinafine, reference compound], the MIC ([4]; Microsporum canis, 96 h) was 0.015 µg/mL (≈ 0.0515 µM), the MIC ([5]; Trichophyton rubrum, 96 h) was 0.002 µg/mL (≈ 0.00686 µM) and the MIC ([6]; Trichophyton tonsurans, 96 h) was 0.015 µg/mL (≈ 0.0515 µM). It also gave an MIC ([7]; Trichophyton mentagrophytes, 96 h) of 0.004 µg/mL (≈ 0.0137 µM).

`OC(Cn1cncn1)(Cn1cncn1)c1ccc(F)cc1F` [fluconazole] was tested, and the “percent survival after 30 days” value [8] was “about 30%” and the “percent survival after 20 days” value [9] was 0%.
